In ChEMBL document CHEMBL1201862, “PubChem BioAssay data set” (2004):
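Assay format: 96-well plates, 48-hour exposure. GI50 marks 50% less growth.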 Active and inactive are the calls of the source. Cut-off read from the data, not from the text of the source: active = GI50 up to about 1.1 µM and inactive = higher.

Legend:
Test in all cases: NCI anticancer screen, dose series, 48 h
[1] = test system: SK-MEL-5
[2] = test system: OVCAR-8
[3] = test system: BT-549
[4] = test system: SK-OV-3
[5] = test system: MDA-MB-435
[6] = test system: HL-60
[7] = test system: SN12C
[8] = test system: HCT-116
[9] = test system: 786-0
[10] = test system: A549
[11] = test system: NCI-H460
[12] = test system: CAKI-1
[13] = test system: SNB-19
[14] = test system: KM12
[15] = test system: RXF 393
[16] = test system: TK-10
[17] = test system: OVCAR-5
[18] = test system: IGROV-1
[19] = test system: CCRF-CEM

Measured: GI50

Oc1ccc(Cn2c(-c3ccc(O)c(O)c3)nc3ccccc32)cc1O
inactive: [1] 14.7 µM | [2] 7.76 µM | [3] 10.4 µM | [4] 18.6 µM | [5] 12.8 µM | [6] 16.8 µM | [7] 10.1 µM | [8] 4.72 µM | [9] 9.44 µM | [10] 18.2 µM | [11] 15.8 µM | [12] 15.5 µM | [13] 9.2 µM | [14] 13.5 µM | [15] 29.4 µM | [16] 9.64 µM | [17] 38.1 µM | [18] 11.9 µM | [19] 3.37 µM

Cc1cc(C)nc(SCCc2cccc[n+]2C)n1
inactive: [1] > 100 µM | [2] > 100 µM | [3] > 100 µM | [4] > 100 µM | [5] > 100 µM | [6] > 100 µM | [7] > 100 µM | [8] > 100 µM | [9] > 100 µM | [10] 34.4 µM | [11] > 100 µM | [12] > 100 µM | [13] > 100 µM | [14] > 100 µM | [15] > 100 µM | [16] > 100 µM | [17] 36.1 µM | [18] > 100 µM | [19] > 100 µM

O=C(/C=C(\O)c1cc(-c2ccccc2)n(-c2ccccc2)n1)c1ccccc1
inactive: [1] 8.85 µM | [2] 3.2 µM | [3] 2.3 µM | [4] 3.04 µM | [5] 3.78 µM | [6] 4.43 µM | [7] 2.56 µM | [8] 5.64 µM | [9] 3.27 µM | [10] 4.4 µM | [11] 3.53 µM | [12] 3.13 µM | [13] 5.97 µM | [14] 4.48 µM | [15] 67.6 µM | [16] 4.46 µM | [17] 19.3 µM | [18] 2.51 µM | [19] 1.24 µM

CCNC12CCC(C1)C(C)(C)C2=O (stereo unspecified)
inactive: [1] > 100 µM | [2] > 100 µM | [3] > 100 µM | [4] > 100 µM | [5] > 100 µM | [6] > 100 µM | [7] > 100 µM | [8] > 100 µM | [9] > 100 µM | [10] > 100 µM | [11] > 100 µM | [12] > 100 µM | [13] > 100 µM | [14] > 100 µM | [15] > 100 µM | [16] > 100 µM | [17] > 100 µM | [18] > 100 µM | [19] > 100 µM
